Data reported in patent US6841362B1, “Melanoma differentiation associated gene-7 promoter and uses thereof” (The Trustees of Columbia University in the City of New York, priority 2000, dated 2005).

Assays:
FL-mda-7 promoter = FL-mda-7 promoter luciferase reporter assay, transient transfection; format: cell-based, human; settings: HO-1 and MeWo cells, 48 hr treatment, relative to uninduced; IFN-β 2000 units/ml, MEZ 10 ng/ml
Protocol: The effect of differentiation inducer drug treatment on full length mda-7 promoter activity. Fold induction of the FL-mda-7 promoter relative to the pGL3-Basic plasmid with or without differentiation inducer drug treatment in HO-1 (FIG. 1A) or MeWo (FIG. 1B) human melanoma cells. Luciferase assays were performed as previously described (Gopalkrishnan et al., 1999). In brief, the promoter-containing plasmids were transiently transfected into the different cell types using Superfect^R (Qiagen) according to the manufacturer's protocol. The cells were treated with differentiation inducers (IFN-β, 2000 units/ml; MEZ, 10 ng/ml; or IFN-β+MEZ, 2000 units/ml+10 ng/ml) for 48 h following transfection and assayed for luciferase activity using the Luc+Assat Kit (Promega). The SV40-p-Galactosidase plasmid was co-transfected with the luciferase constructs and used to normalize for variations in transfection efficiencies between experiments. […]
The presumptive promoter fragment was assayed for promoter activity using a heterologous gene reporter system (pGL3-Basic, luciferase assay system, Promega). […] The transfection efficiency was determined by cotransfection with RSV-β-galactosidase (Tropics β-Gal assay kit) and the relative luciferase activity was computed after correction for variations in transfection efficiencies.

mda-7 gene = assay: Nuclear run-on assay of mda-7 transcription; format: cell-based, human; settings: HO-1 cells, 24 h treatment, versus uninduced control
Protocol: (FIG. 2A) Nuclear run-on assays using nuclei isolated from Control or 24 h after treatment with IFN-β, MEZ or IFN-β+MEZ, the same concentrations as indicated in FIG. 1. GAPDH was used as an internal control. In vitro transcription assays were performed as previously described (Jiang et al., 1993). […] GAPDH was used as an internal loading control.
Transcription of the housekeeping gene, GAPDH served as an internal control.

mda-7 mRNA [1] = assay: RT-PCR followed by Southern blotting of mda-7 mRNA; format: cell-based, human; settings: HO-1 cells, compared to IFN-β+MEZ treated samples
Protocol: (FIG. 2B) Mda-7 message expression detected by Northern blotting and RT-PCR followed by Southern blotting. Total RNA from control (FIG. 2C) HO-1 cells and cells treated with IFN-β (I), MEZ (M) or IFN-β+MEZ (I+M) were analyzed by Northern blotting or RT-PCR/Southern using radiolabeled mda-7 cDNA as a probe as previously described (Jiang et al., 1993, 1995a; Kang et al., 1998a). GAPDH was used as an internal loading control.
To determine the possible presence of trace amounts of mda-7 mRNA in response to differentiation inducer treatment (IFN-β) and in the absence of treatment, a more sensitive method of message detection was employed, i.e., RT-PCR followed by Southern blotting.
Nucleic acid analysed. Total cytoplasmic RNA was prepared by the guanidinium-HCL extraction method followed by Northern blotting or RT-PCR analysis using previously published protocols (12, 18, 22). For Northern blots, 15 mg of RNA was denatured with glyoxal/DMSO, electrophoresed on 1% agarose gels, transferred to nylon membranes and hybridized with ^32P-dCTP labeled cDNA probes.

mda-7-ARE-3'-UTR = assay: Luciferase-mda-7-ARE-3'UTR reporter assay; format: cell-based, human; settings: HO-1 cells
Source text: Posttranscriptional regulation of Luciferase mRNA as a consequence of mda-7-3′ UTR addition at its 3′-end. The Luciferase expression plasmid having SV40 polyadenylation signal sequence was replaced with the 3′-UTR region (approximately 900 bp) of mda-7. […] (FIG. 3A) Mda-7 3′-UTR mediated destabilization of luciferase mRNA was computed as fold induction of luciferase enzyme activity, which is seen only when stable luciferase mRNA, is synthesized. […] (FIG. 3B) Kinetic analysis of luciferase activity (as fold-induction) of the mda-7 promoter-luciferase-ARE-3′-UTR construct as a function of time of treatment with IFN-β+MEZ. Luciferase assays were performed as described by Gopalkrishnan et al. (1999) and briefly in the legend to FIGS. 1A-1B.
To examine the posttranscriptional regulation of mda-7 mRNA specifically during terminal differentiation of human melanoma cells, we constructed a Luciferease-mda-7-ARE-3′UTR plasmid under transcriptional control of either the FL-mda-7 promoter (FIG. 3) or the SV40 large T-antigen promoter. These plasmids were co-transfected into HO-1 cells and treated with differentiation inducers.

C/EBP-β/LAP = assay: Western blotting of C/EBP-β/LAP protein in whole cell lysates; format: cell-based, human; settings: HO-1 cells, 24 h treatment
Protocol: (§1) FIGS. 8A-8C. Protein expression pattern of the transcription factors cJun/AP-1 and C/EBP-β and their ability to transactivat the mda-7 promoter. [FIG. 8A] Whole cell lysates from HO-1 control cells (C) and those treated with IFN-β (I), MEZ (M), IFN-β+MEZ (I+M) or TPA were resolved on a 4-20% SDS-PAGE gel and transblotted onto nitrocellulose filters. Immobilized proteins were then analyzed by Western blotting using commercially available cJun/AP-1 and C/EBP-β specific antibodies. […] Equal protein loading was determined by Coomassie blue staining of a parallel gel. [FIG. 8B] […]
(§2) Electrophoresis and immunoblotting. Equal amounts of whole cell proteins were analyzed by sodium dodecylsulfate-polyacrylamide gel electrophoresis (SDS-PAGE, 4-20% gradient gel; Novex) and electrotransferred onto ECL grade nitrocellulose (Amersham) as described previously (24). […]
(§3) AP-1 and C/EBP families of transcription factors are responsible for mda-7 promoter activation during human melanoma differentiation. […] Western blot analyses of whole cell lysates (equal protein loading was verified by Coomassie blue staining of a parallel gel, data not shown) from uninduced HO1 cells and cultures treated for 24 h with IFN-β, MEZ, IFN-β+MEZ or TPA were analyzed using anti-cJun/AP-1, anti-C/EBP-α or anti-C/EBP-β antibodies. […]

mda-7 mRNA [2] = assay: Northern blotting of mda-7 message; format: cell-based, human; settings: HO-1 cells, 24 h treatment
Source text: FIGS. 5A-5B. Message and protein expression analyses of mda-7 during melanoma terminal differentiation. (FIG. 5A) Northern blotting analysis of mda-7 message expression. Total RNA was isolated from HO-1 cells that were uninduced (C) or treated with IFN-β (I), MEZ (M) or IFN-β+MEZ (I+M) and analyzed by Northern blotting. 28S RNA was used as a loading control. Mda-7 message was detected using a random primed [^32P]-labeled mda-7 cDNA probe (18). (FIG. 5B) Indirect immunofluorescence visualization of MDA-7 protein subcellular localization. Both uninduced HO-i cells (Control; A and S) and terminally differentiated (48 h IFN-β+MEZ treated; C and D) were immuno-labeled using anti-MDA-7 specific monoclonal antibody. Anti-mouse secondary antibodies conjugated with Rhodamine enabled visualization of MDA-7 protein localization (A and C) and the DNA specific dye, DAPI was used to stain nuclei (B and D). With the exception of a cell undergoing mitosis no other cells reveal MDA-7 staining in control cultures (A and B). Terminally differentiated cells in (C) and (D) show strong punctate MDA-7 staining within the nucleus (See enlargement below (C) and (D) of a single nucleus). The arrow points to the punctate bodies to which MDA-7 localizes in the nucleus and their coincidence with DAPI bright staining regions.
Nucleic acid analysed. […]

HO-1 cells = settings: cited from earlier work
cJun/AP-1 = assay: Western blotting of cJun/AP-1 protein in whole cell lysates; format: cell-based, human; settings: HO-1 cells, 24 h treatment, compared to uninduced controls
Protocol: as §1, §2, §3

mda-7 mRNA [3] = assay: Effect of cycloheximide on mda-7 mRNA stability, Northern blotting; format: cell-based, human; settings: MEZ treated HO-1 cells, cycloheximide 10 μg/ml for 3 h; lesser extent in control and IFN-β treated samples
Protocol: (§4) FIGS. 4A-4B. Effect of actinomycin D and cycloheximide on th half-life and stability of the mda-7 message. […] Northern blotting analyses were performed on total RNA isolated from control (C)HO-1 or cells treated with IFN-β (I), MEZ (M) or IFN-β+MEZ (I+M), at the same concentrations as in FIG. 1. Twenty-four h after exposure to the inducing agent(s), acitnomycin D (Act.D, 5 μg/ml) was added (+Act.D) for 30 minutes (30′) or one h (1′). Mda-7 expression was detected using a radiolabeled mda-7 cDNA probe as previously described (Jiang et al., 1995a). rRNA visualized by ethidium bromide was used as a loading control. (FIG. 4B) Effect of cycloheximide treatment on mda-7 mRNA stability relative to p21/mda-6 Untreated control (C)HO-1 cells or cells treated for 24 h with IFN-β (I), MEZ (M) or IFN-β+MEZ at the same concentrations as in FIGS. 1A-1B. After 24 h induction, cells were treated with or without cycloheximide (10 μg/ml) for 3 h and total RNA was isolated and analyzed by Northern blotting. Mda-7 expression was detected using a radiolabeled mda-7 cDNA probe (Jiang et al., 1995a). The blot was allowed to decay for 3 months, and then reprobed using a radiolabeled probe against a p21/mda-6 cDNA (Jiang et al., 1995b). rRNA visualized by ethidium bromide was used as a loading control. […]

p21/Waf1/Cip1/mda-6 = assay: Effect of cycloheximide on p21/mda-6 message, Northern blotting; format: cell-based, human; settings: HO-1 cells, cycloheximide 10 μg/ml for 3 h
Protocol: as §4

mda-7 promoter = mda-7 promoter activity on IL-6 treatment; format: cell-based; settings: cells treated with IL-6, unpublished data
Protocol: It appears that C/EBP-B/LAP binding sites at a distance from the TATA element are responsible for mda-7 expression in terminally differentiated human melanoma cells. Another line of evidence supporting the involvement of the C/EBP gene family in melanoma terminal differentiation is apparent from increased levels of C/EBP-B/LAP protein in HO-1 cells as early as 24 h after treatment with IFN-β+MEZ when compared to cells treated with IFN-β, MEZ or TPA. The transcription factor C/EBP is a heat-stable, sequence-specific DNA-binding protein first purified from rat liver nuclei (39). C/EBP regulates gene expression in a variety of tissues including liver, adipose, lung and intestine (40). This transcription factor appears to function exclusively in differentiated and growth-arrested cells (40). […] It is the ratio of LIP/LAP that is important in C/EBP-mediated gene expression. In the case of terminally differentiated HO-1 melanoma cells, we were unable to detect any LIP protein. The present studies provide evidence that the C/EBP gene family members, C/EBP-B/LAP in particular, play a major role during melanoma terminal differentiation. C/EBP-a and -B can both directly induce the mda-7 promoter as shown by ectopic expression analyses. […]

Molecule: C=C(C)[C@@]12O[C@@]3(c4ccccc4)O[C@@H]1[C@@H]1[C@@H]4O[C@]4(CO)[C@@H](O)[C@]4(O)C(=O)C(C)=C[C@H]4[C@@]1(O3)[C@H](C)[C@H]2OC(=O)/C=C/C=C/c1ccccc1 [MEZ, mezerein]
- activity of the FL-mda-7 promoter (luciferase) (FL-mda-7 promoter): only small changes
- rate of mda-7 transcription (mda-7 gene): the same
- mda-7 mRNA by RT-PCR (mda-7 mRNA [1]): lower levels
- luciferase enzyme activity of Luciferase-mda-7-ARE-3'UTR construct (mda-7-ARE-3'-UTR): minimal
- level of C/EBP-β/LAP protein (C/EBP-β/LAP): approximately 3 fold
- mda-7 message by Northern blotting (mda-7 mRNA [2]): Quantitatively less
- growth suppression and differentiation (HO-1 cells): reversible

Molecule: CCCCCCCCCCCCCC(=O)O[C@@H]1[C@@H](C)[C@@]2(O)[C@@H](C=C(CO)C[C@]3(O)C(=O)C(C)=C[C@@H]23)[C@@H]2C(C)(C)[C@]12OC(C)=O [TPA]
- level of cJun/AP-1 protein (cJun/AP-1): only marginally increased

Molecule: C[C@@H]1C[C@@H]([C@H](O)CC2CC(=O)NC(=O)C2)C(=O)[C@@H](C)C1 [cycloheximide]
- accumulation of mda-7 mRNA (mda-7 mRNA [3]): visibly increased
- p21/mda-6 message accumulation (p21/Waf1/Cip1/mda-6): does not show message accumulation

Molecule: IL-6: potent inducer of NF-IL6
- mda-7 promoter activity (mda-7 promoter): induced
